Reference: ChEMBL document CHEMBL1201862, “PubChem BioAssay data set” (2004)
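How tested: cells in 96-well plates exposed to compound for 48 hours at five concentrations. Here, GI50 denotes the concentration required for 50% inhibition of growth.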 Calls of active or inactive are those of the source. Rule as the data show it: active = GI50 up to about 1.1 µM and inactive = higher.

What was measured:
Experiment in all cases: growth of human tumour cells (NCI), 48 h
A549 = test system: A549
ACHN = test system: ACHN
CCRF-CEM = test system: CCRF-CEM
DU-145 = test system: DU-145
HOP-62 = test system: HOP-62
HT-29 = test system: HT-29
K562 = test system: K562
KM12 = test system: KM12
MDA-MB-231 = test system: MDA-MB-231
OVCAR-4 = test system: OVCAR-4
RPMI-8226 = test system: RPMI-8226
SF-295 = test system: SF-295
SF-539 = test system: SF-539
SK-MEL-28 = test system: SK-MEL-28
SK-MEL-2 = test system: SK-MEL-2
SK-OV-3 = test system: SK-OV-3
SNB-75 = test system: SNB-75
SW-620 = test system: SW-620
UO-31 = test system: UO-31
M14 = test system: M14

Nc1nc(Cl)cc(NCC2(O)CC2)n1
GI50 (A549): > 100 µM (inactive)
GI50 (ACHN): > 100 µM (inactive)
GI50 (CCRF-CEM): > 100 µM (inactive)
GI50 (DU-145): > 100 µM (inactive)
GI50 (HOP-62): > 100 µM (inactive)
GI50 (HT-29): > 100 µM (inactive)
GI50 (K562): > 100 µM (inactive)
GI50 (KM12): > 100 µM (inactive)
GI50 (MDA-MB-231): > 100 µM (inactive)
GI50 (OVCAR-4): > 100 µM (inactive)
GI50 (RPMI-8226): > 100 µM (inactive)
GI50 (SF-295): > 100 µM (inactive)
GI50 (SF-539): > 100 µM (inactive)
GI50 (SK-MEL-28): > 100 µM (inactive)
GI50 (SK-MEL-2): > 100 µM (inactive)
GI50 (SK-OV-3): > 100 µM (inactive)
GI50 (SNB-75): > 100 µM (inactive)
GI50 (SW-620): > 100 µM (inactive)
GI50 (UO-31): > 100 µM (inactive)

OC(Cc1cc(CC(O)(C(F)(F)F)C(F)(F)F)nc(CC(O)(C(F)(F)F)C(F)(F)F)c1)(C(F)(F)F)C(F)(F)F
GI50 (A549): 1.4 µM (inactive)
GI50 (ACHN): 0.681 µM (active)
GI50 (CCRF-CEM): > 10 µM (inactive)
GI50 (DU-145): 1.91 µM (inactive)
GI50 (HOP-62): 1.73 µM (inactive)
GI50 (HT-29): 1.63 µM (inactive)
GI50 (K562): > 10 µM (inactive)
GI50 (KM12): 0.482 µM (active)
GI50 (M14): 2.43 µM (inactive)
GI50 (MDA-MB-231): 1.92 µM (inactive)
GI50 (OVCAR-4): 0.851 µM (active)
GI50 (RPMI-8226): > 10 µM (inactive)
GI50 (SF-295): 0.509 µM (active)
GI50 (SF-539): 1.69 µM (inactive)
GI50 (SK-MEL-28): 1.98 µM (inactive)
GI50 (SK-MEL-2): 2.02 µM (inactive)
GI50 (SK-OV-3): 3.96 µM (inactive)
GI50 (SNB-75): 1.92 µM (inactive)
GI50 (SW-620): 0.574 µM (active)

COC(=O)C1=C(C)NC2=C(C(=O)c3ccccc32)C1c1cn(-c2ccccc2)nc1-c1ccccc1 (stereo not drawn)
GI50 (A549): 12 µM (inactive)
GI50 (ACHN): 17.2 µM (inactive)
GI50 (CCRF-CEM): 23.4 µM (inactive)
GI50 (DU-145): > 100 µM (inactive)
GI50 (HOP-62): > 100 µM (inactive)
GI50 (K562): 16.3 µM (inactive)
GI50 (KM12): 7.93 µM (inactive)
GI50 (M14): > 100 µM (inactive)
GI50 (MDA-MB-231): > 100 µM (inactive)
GI50 (OVCAR-4): > 100 µM (inactive)
GI50 (RPMI-8226): 2.67 µM (inactive)
GI50 (SF-295): 34.5 µM (inactive)
GI50 (SF-539): 21.2 µM (inactive)
GI50 (SK-MEL-28): 96.8 µM (inactive)
GI50 (SK-MEL-2): > 59.3 µM (inactive)
GI50 (SK-OV-3): > 100 µM (inactive)
GI50 (SNB-75): 1.56 µM (inactive)
GI50 (SW-620): > 100 µM (inactive)
GI50 (UO-31): 3.91 µM (inactive)

C=C(C(=O)O)[C@@H]1C[C@@H]2O[C@H]1CC(C)=CCC/C(C)=C/CC[C@@]2(C)O
GI50 (A549): > 100 µM (inactive)
GI50 (ACHN): > 100 µM (inactive)
GI50 (CCRF-CEM): > 100 µM (inactive)
GI50 (DU-145): > 100 µM (inactive)
GI50 (K562): > 100 µM (inactive)
GI50 (KM12): > 100 µM (inactive)
GI50 (M14): > 100 µM (inactive)
GI50 (MDA-MB-231): > 100 µM (inactive)
GI50 (OVCAR-4): > 100 µM (inactive)
GI50 (RPMI-8226): > 100 µM (inactive)
GI50 (SF-295): > 100 µM (inactive)
GI50 (SF-539): > 100 µM (inactive)
GI50 (SK-MEL-28): > 100 µM (inactive)
GI50 (SK-MEL-2): > 100 µM (inactive)
GI50 (SNB-75): > 100 µM (inactive)
GI50 (SW-620): > 100 µM (inactive)
GI50 (UO-31): > 100 µM (inactive)

O=C(O)C1CCCCN1CCc1c[nH]c2ccccc12 (stereo not drawn)
GI50 (A549): > 100 µM (inactive)
GI50 (ACHN): > 100 µM (inactive)
GI50 (CCRF-CEM): > 100 µM (inactive)
GI50 (DU-145): > 100 µM (inactive)
GI50 (HOP-62): > 100 µM (inactive)
GI50 (HT-29): > 100 µM (inactive)
GI50 (K562): > 100 µM (inactive)
GI50 (KM12): > 100 µM (inactive)
GI50 (M14): > 100 µM (inactive)
GI50 (MDA-MB-231): > 100 µM (inactive)
GI50 (OVCAR-4): > 100 µM (inactive)
GI50 (RPMI-8226): > 100 µM (inactive)
GI50 (SF-295): > 100 µM (inactive)
GI50 (SF-539): > 100 µM (inactive)
GI50 (SK-MEL-28): > 100 µM (inactive)
GI50 (SK-MEL-2): > 100 µM (inactive)
GI50 (SK-OV-3): > 100 µM (inactive)
GI50 (SNB-75): > 100 µM (inactive)
GI50 (SW-620): > 100 µM (inactive)

COc1ccc2nc3c(nc2c1)C(C)(C)C=C3c1ccc(Br)cc1
GI50 (A549): > 100 µM (inactive)
GI50 (ACHN): > 100 µM (inactive)
GI50 (CCRF-CEM): > 100 µM (inactive)
GI50 (DU-145): > 100 µM (inactive)
GI50 (HOP-62): > 100 µM (inactive)
GI50 (HT-29): > 100 µM (inactive)
GI50 (K562): > 10 µM (inactive)
GI50 (KM12): > 100 µM (inactive)
GI50 (M14): > 100 µM (inactive)
GI50 (MDA-MB-231): > 100 µM (inactive)
GI50 (OVCAR-4): 76.9 µM (inactive)
GI50 (RPMI-8226): > 100 µM (inactive)
GI50 (SF-539): 97.3 µM (inactive)
GI50 (SK-MEL-28): > 10 µM (inactive)
GI50 (SK-MEL-2): > 100 µM (inactive)
GI50 (SNB-75): 87.7 µM (inactive)
GI50 (SW-620): 5.68 µM (inactive)

CC(=O)/N=C1/N(/C=C2\C(=O)Oc3ccccc3C2=O)C(=O)/C(=C/c2cccc(Cl)c2Cl)N1C
GI50 (A549): 28.2 µM (inactive)
GI50 (ACHN): 13.7 µM (inactive)
GI50 (CCRF-CEM): 11.1 µM (inactive)
GI50 (DU-145): 41.8 µM (inactive)
GI50 (HOP-62): 19.7 µM (inactive)
GI50 (HT-29): 19.1 µM (inactive)
GI50 (K562): 10.7 µM (inactive)
GI50 (KM12): 26.7 µM (inactive)
GI50 (M14): 14.8 µM (inactive)
GI50 (MDA-MB-231): 29.9 µM (inactive)
GI50 (RPMI-8226): 12.4 µM (inactive)
GI50 (SF-295): 34.4 µM (inactive)
GI50 (SF-539): 4.42 µM (inactive)
GI50 (SK-MEL-28): 29 µM (inactive)
GI50 (SK-MEL-2): 19.8 µM (inactive)
GI50 (SK-OV-3): 17.2 µM (inactive)
GI50 (SNB-75): 17.3 µM (inactive)
GI50 (SW-620): 29.9 µM (inactive)

Cc1ccc(S(=O)(=O)NC(=O)NCC(=O)NCC(=O)O)cc1
GI50 (A549): > 100 µM (inactive)
GI50 (ACHN): > 100 µM (inactive)
GI50 (CCRF-CEM): > 100 µM (inactive)
GI50 (DU-145): > 100 µM (inactive)
GI50 (HT-29): > 100 µM (inactive)
GI50 (K562): > 100 µM (inactive)
GI50 (KM12): > 100 µM (inactive)
GI50 (M14): > 100 µM (inactive)
GI50 (MDA-MB-231): > 100 µM (inactive)
GI50 (OVCAR-4): > 100 µM (inactive)
GI50 (RPMI-8226): > 100 µM (inactive)
GI50 (SF-295): > 100 µM (inactive)
GI50 (SF-539): > 100 µM (inactive)
GI50 (SK-MEL-28): > 100 µM (inactive)
GI50 (SK-MEL-2): > 100 µM (inactive)
GI50 (SK-OV-3): > 100 µM (inactive)
GI50 (SNB-75): > 100 µM (inactive)
GI50 (SW-620): > 100 µM (inactive)
GI50 (UO-31): > 100 µM (inactive)

Cc1cc(N(CCC#N)CCC#N)ccc1C(/N=N/c1ccc(Cl)cc1)=N\NC(=O)c1cc(Cl)ccc1O
GI50 (A549): 31.3 µM (inactive)
GI50 (ACHN): 32.4 µM (inactive)
GI50 (CCRF-CEM): 37 µM (inactive)
GI50 (DU-145): > 100 µM (inactive)
GI50 (HOP-62): 20.5 µM (inactive)
GI50 (HT-29): 45.9 µM (inactive)
GI50 (K562): 76.2 µM (inactive)
GI50 (KM12): 58.9 µM (inactive)
GI50 (M14): > 100 µM (inactive)
GI50 (MDA-MB-231): 30.8 µM (inactive)
GI50 (OVCAR-4): 27.1 µM (inactive)
GI50 (RPMI-8226): > 100 µM (inactive)
GI50 (SF-295): 22.8 µM (inactive)
GI50 (SF-539): 25 µM (inactive)
GI50 (SK-MEL-2): 67 µM (inactive)
GI50 (SK-OV-3): 34.8 µM (inactive)
GI50 (SNB-75): 30.1 µM (inactive)
GI50 (UO-31): 64.4 µM (inactive)

O=C(/C=C/c1ccccc1)Oc1ccc(C(=O)/C=C/c2ccc(Cl)cc2)cc1
GI50 (A549): > 100 µM (inactive)
GI50 (ACHN): > 100 µM (inactive)
GI50 (CCRF-CEM): 17.4 µM (inactive)
GI50 (DU-145): 59.8 µM (inactive)
GI50 (HOP-62): > 100 µM (inactive)
GI50 (HT-29): > 100 µM (inactive)
GI50 (K562): 87.3 µM (inactive)
GI50 (KM12): 33.8 µM (inactive)
GI50 (M14): > 100 µM (inactive)
GI50 (MDA-MB-231): > 100 µM (inactive)
GI50 (RPMI-8226): 43.3 µM (inactive)
GI50 (SF-295): 82.6 µM (inactive)
GI50 (SF-539): 28 µM (inactive)
GI50 (SK-MEL-28): > 100 µM (inactive)
GI50 (SK-MEL-2): > 100 µM (inactive)
GI50 (SK-OV-3): > 100 µM (inactive)
GI50 (SNB-75): 75.3 µM (inactive)
GI50 (SW-620): > 100 µM (inactive)
GI50 (UO-31): 63.8 µM (inactive)

CC(C)C[C@H](NC(=O)[C@H](Cc1ccccc1)NC(=O)c1cnccn1)B(O)O [BORTEZOMIB]
GI50 (A549): < 0.01 µM (active)
GI50 (ACHN): < 0.01 µM (active)
GI50 (DU-145): < 0.01 µM (active)
GI50 (HOP-62): < 0.01 µM (active)
GI50 (HT-29): < 0.01 µM (active)
GI50 (K562): < 0.01 µM (active)
GI50 (KM12): < 0.01 µM (active)
GI50 (M14): < 0.01 µM (active)
GI50 (MDA-MB-231): < 0.01 µM (active)
GI50 (OVCAR-4): < 0.01 µM (active)
GI50 (RPMI-8226): 0.01 µM (active)
GI50 (SF-295): < 0.01 µM (active)
GI50 (SF-539): < 0.01 µM (active)
GI50 (SK-MEL-28): < 0.01 µM (active)
GI50 (SK-MEL-2): 0.01 µM (active)
GI50 (SK-OV-3): 0.0329 µM (active)
GI50 (SNB-75): < 0.01 µM (active)
GI50 (SW-620): < 0.01 µM (active)
GI50 (UO-31): < 0.01 µM (active)
